Measurements as given in PubChem BioAssay AID1259411 (Chemical Carcinogenesis Research Information System (CCRIS), 2018).
The source made the active and inactive calls. How the calls were made is not given here.

System: rodent carcinogenicity bioassays, tumor incidence
Test: CCRIS carcinogenicity studies
Conditions: Species: RAT
In short: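 NCI-built, expert-reviewed records of carcinogenicity and related test outcomes (mutagenicity, tumor promotion/inhibition) compiled from published and report sources, historical span 1985-2011, not updated.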

Measured: carcinogen call

CCN(N=O)C(N)=O
active: Strain/Sex: F344/MALE, Route: GAVAGE, Dose: 0, 2.4 MG IN 0.2 ML ETHYL ACETATE/CORN OIL (1:1) 2/WK FOR 28 WK (TOTAL DOSE: 135 MG) (STUDY DURATION: 80 WK), Tumor Site: Type of Lesion: FORESTOMACH: CARCINOMA, LUNG: CARCINOMA OR ADENOMA active; positive | Strain/Sex: F344/MALE, Route: GAVAGE, Dose: 0, 6 MG/ML (TOTAL DOSE 0; 0.4 MMOL) IN 2 ML ETHYL ACETATE AND CORN OIL (1:2) 2/WK FOR 20 WK (STUDY DURATION: LIFETIME), Dose: 0, 6 MG/ML (TOTAL DOSE 0; 0.4 MMOL) IN 2 ML ETHYL ACETATE AND CORN OIL (1:2) 2/WK FOR 20 WK (STUDY DURATION: LIFETIME), Tumor Site: Type of Lesion: FORESTOMACH: SQUAMOUS CELL CARCINOMA, THYROID: C-CELL TUMOR, FOLLICULAR CELL TUMOR, LUNG: TUMOR, NERVOUS SYSTEM: TUMOR;, Tumor Site: Type of Lesion: FORESTOMACH: SQUAMOUS CELL CARCINOMA, THYROID: C-CELL TUMOR, FOLLICULAR CELL TUMOR, LUNG: TUMOR, NERVOUS SYSTEM: TUMOR active; positive | Strain/Sex: F344/MALE, Route: GAVAGE, Dose: 0, 6 MG/ML IN 0.2 ML ETHYL ACETATE AND CORN OIL 2/WK FOR 20 WK (STUDY DURATION: LIFESPAN), Tumor Site: Type of Lesion: FORESTOMACH: TUMOR, THYROID: C-CELL TUMOR, FOLLICULAR CELL TUMOR, LUNG: TUMOR, NERVOUS SYSTEM: TUMOR, COLON: TUMOR, PERI, Tumor Site: Type of Lesion: FORESTOMACH: TUMOR, THYROID: C-CELL TUMOR, FOLLICULAR CELL TUMOR, LUNG: TUMOR, NERVOUS SYSTEM: TUMOR, COLON: TUMOR, PERI active; positive | Strain/Sex: F344/MALE, Route: GAVAGE, Dose: 0, 12 MG/ML (TOTAL DOSE 0; 1.1 MMOL) IN 2 ML ETHYL ACETATE AND CORN OIL (1:2) 2/WK FOR 28 WK (STUDY DURATION: LIFETIME), Dose: 0, 12 MG/ML (TOTAL DOSE 0; 1.1 MMOL) IN 2 ML ETHYL ACETATE AND CORN OIL (1:2) 2/WK FOR 28 WK (STUDY DURATION: LIFETIME), Tumor Site: Type of Lesion: FORESTOMACH: SQUAMOUS CELL CARCINOMA, LUNG: TUMOR, ILEUM/JEJUNUM: TUMOR, BODY CAVITY: MESOTHELIOMA, ZYMBAL GLAND: TUMOR;, Tumor Site: Type of Lesion: FORESTOMACH: SQUAMOUS CELL CARCINOMA, LUNG: TUMOR, ILEUM/JEJUNUM: TUMOR, BODY CAVITY: MESOTHELIOMA, ZYMBAL GLAND: TUMOR active; positive | Strain/Sex: F344/MALE, Route: GAVAGE, Dose: 0, 12 MG/ML IN 0.2 ML ETHYL ACETATE AND CORN OIL 2/WK FOR 28 WK (STUDY DURATION: LIFESPAN), Tumor Site: Type of Lesion: FORESTOMACH: TUMOR, LUNG: TUMOR, ILEUM/JEJUNUM: TUMOR, PERITONEUM: MESOTHELIOMA, Tumor Site: Type of Lesion: FORESTOMACH: TUMOR, LUNG: TUMOR, ILEUM/JEJUNUM: TUMOR, PERITONEUM: MESOTHELIOMA active; positive | Strain/Sex: F344/MALE, Route: ORAL, Dose: 0, 0.3, 1, 3, 10 PPM IN DRINKING WATER FOR 104 WK (STUDY DURATION: 111 WK), Dose: 0, 0.3, 1, 3, 10 PPM IN DRINKING WATER FOR 104 WK (STUDY DURATION: 111 WK), Tumor Site: Type of Lesion: BRAIN: GLIOMA, MAMMARY GLAND: FIBROMA, LUNG: ADENOMA, LUNG: ADENOCARCINOMA, PERITONEUM: MESOTHELIOMA, Tumor Site: Type of Lesion: BRAIN: GLIOMA, MAMMARY GLAND: FIBROMA, LUNG: ADENOMA, LUNG: ADENOCARCINOMA, PERITONEUM: MESOTHELIOMA active; positive | Strain/Sex: SPRAGUE-DAWLEY/FEMALE, Route: IN UTERO, Dose: 0, 2.5, 10 MG/KG BW ONCE ADMINISTERED INTRAVENOUSLY ON DAY 15 OF GESTATION (STUDY DURATION: 104 WK), Dose: 0, 2.5, 10 MG/KG BW ONCE ADMINISTERED INTRAVENOUSLY ON DAY 15 OF GESTATION (STUDY DURATION: 104 WK), Tumor Site: Type of Lesion: BRAIN: GLIOMA active; positive | Strain/Sex: SPRAGUE-DAWLEY/MALE, Route: IN UTERO, Dose: 0, 2.5, 10 MG/KG BW ONCE ADMINISTERED INTRAVENOUSLY ON DAY 15 OF GESTATION (STUDY DURATION: 104 WK), Dose: 0, 2.5, 10 MG/KG BW ONCE ADMINISTERED INTRAVENOUSLY ON DAY 15 OF GESTATION (STUDY DURATION: 104 WK), Tumor Site: Type of Lesion: BRAIN: GLIOMA active; positive | Strain/Sex: SPRAGUE-DAWLEY, Route: INTRAVENOUSLY TO MATERNAL RATS AT 15 D OF GESTATION, PROGENY OBSERVED, Dose: 0, 2.5, 6.25, 10.0 MG/KG BW (STUDY DURATION: 24 MO), Dose: 0, 2.5, 6.25, 10.0 MG/KG BW (STUDY DURATION: 24 MO), Tumor Site: Type of Lesion: BRAIN: OLIGODENDRO-GLIOMA AND MIXED GLIOMA active; positive | Strain/Sex: SPRAGUE-DAWLEY, Route: INTRAVENOUSLY TO MOTHERS AT 15 D OF GESTATION, PROGENY OBSERVED, Dose: 0, 2.5, 6.25, 10.0 MG/KG BW (STUDY DURATION: 2 YRS), Dose: 0, 2.5, 6.25, 10.0 MG/KG BW (STUDY DURATION: 2 YRS), Tumor Site: Type of Lesion: CRANIAL NERVE: TUMORS active; positive | Strain/Sex: SPRAGUE-DAWLEY, Route: INTRAVENOUSLY TO MOTHERS AT 15 D OF GESTATION, PROGENY OBSERVED, Dose: 0, 2.5, 6.25, 10.0 MG/KG BW (STUDY DURATION: 2 YRS), Dose: 0, 2.5, 6.25, 10.0 MG/KG BW (STUDY DURATION: 2 YRS), Tumor Site: Type of Lesion: SPINAL NERVE: TUMORS active; positive | Strain/Sex: SPRAGUE-DAWLEY, Route: INTRAVENOUSLY TO MOTHERS AT 15 D OF GESTATION, PROGENY OBSERVED, Dose: 0, 2.5, 6.25, 10.0 MG/KG BW (STUDY DURATION: 24 MO), Dose: 0, 2.5, 6.25, 10.0 MG/KG BW (STUDY DURATION: 24 MO), Tumor Site: Type of Lesion: SPINAL CORD: TUMORS active; positive | Strain/Sex: WISTAR/MALE, FEMALE, Route: SUBCUTANEOUS, Dose: 0, 60 MG/KG BW ADMINISTERED TO 3 DAY OLD RATS (STUDY DURATION: 12 MO), Tumor Site: Type of Lesion: CENTRAL NERVOUS SYSTEM: GLIOMA active; positive | Strain/Sex: WISTAR/MALE, FEMALE, Route: TRANSPLACENTAL, Dose: 0, 60 MG/KG BW INTRAVENOUS DOSE ADMINISTERED TO LATE GESTATIONAL RATS AND OFFSPRING OBSERVED FOR 12 MO (STUDY DURATION:, Tumor Site: Type of Lesion: CENTRAL NERVOUS SYSTEM: GLIOMA active; positive | Strain/Sex: WISTAR/MALE, Route: INTRAPERITONEAL, Dose: 300 MG/KG BW 1/WK FOR 45 WK (STUDY DURATION: 45 WK), Tumor Site: Type of Lesion: INTEGUMENTARY SYSTEM (SUBCUTANEOUS TISSUE): SPINDLE CELL SARCOMA active; positive
